# Tested on: Ninety four (94) cell lines and PBMC
# Experiment: Cell viability assay, SRB staining, 94 cell lines and PBMC (Example 7, Experiment 2)
# Format: cell-based
# Experimental: Ninety four (94) cell lines were seeded at a density varying from 500 to 7000 cells/well depending on their growth characteristics. PBMC were seeded at the density 50,000-100,000 cells/well. Cells were incubated for 48 h prior to compound treatment. Compound 1 and DON were evaluated at a concertation range of 1 nM up to 100 μM. Compound 1 dilutions in DMSO and DON dilutions in PBS were performed in 96-well 0.5 mL plates (Greiner Bio-One, Germany). Compounds were then diluted 1:100 in RPMI medium. […] of cells were treated by mixing with 10 μL of the compound-containing media (resulting in a final DMSO concentration of 0.1%). The cells were allowed to grow at 37° C. for 120 h. Cells were fixed to the surface by addition of 10% TCA (for adherent growing cells) or 50% TCA (for semi-adherent growing cells or cells growing in suspension). After an hour of incubation at 4° C., plates were washed twice with 400 μL of deionized water and dried. Cells were then stained with 100 μL of 0.04% wt/v SRB. The plates were incubated at room temperature for at least 30 min and washed six times with 1% acetic acid to remove unbound stain. The plates were left to dry at room temperature and bound SRB was solubilized with 100 μL of 10 mM Tris base. Optical density was measured at 492, 520 and 560 nm using a Deelux-LED96 plate reader (Deelux Labortechnik GmbH, Germany).
# Cell lines were purchased directly from the ATCC, NCI, CLS, and DSMZ cell line collections. A master bank and working aliquots were prepared. Cells used for the study had undergone less than 20 passages. To rule out potential contamination or wrong assignment, all cell lines were tested by STR analysis. Absence of mycoplasma contamination was confirmed for all cell lines used in the studies.
# The cell lines were grown in the media recommended by the suppliers in the presence of 100 U/mL penicillin and 100 μg/mL streptomycin supplied with 10% FCS (PAA, Germany). RPMI 1640, DMEM, and MEM Earle's medium were from PAA (Coelbe, Germany), supplements 2 mM L-glutamine, 1 mM Na-pyruvate and 1% NEAA were from PAA (Coelbe, Germany), 2.5% horse serum, hydrocortisone, transferin, beta-estradiol, selenite and 1 U/mL insulin from Sigma-Aldrich (Munich, Germany). RPMI medium was used for culturing the following cell lines: 5637, 22RV1, 7860, A2780, A431, A549, ACHN, ASPC1, BT20, BXPC3, CAKI1, CLS439, COLO205, COLO678, DLD1, DU145, EFO21, EJ28, HCT15, HS578T, IGROV1, JAR, LOVO, MCF7, MDA MB231, MDA MB435, MDA MB436, MDA MB468, MHHES1, MT3, NCI H292, NCI H358M, NCI H460, NCIH82, OVCAR3, OVCAR4, PANC 1005 (addition of insulin), PBMC, PC3, RDES, SF268, SF295, SKBR3, SK MEL28, SKMEL5, SKOV3, SW620, U2OS, UMUC3, and U031.
# DMEM medium was used to culture A204, A375, A673, C33A, CASKI, HCT116, HEPG2, HS729, HT29, J82, MG63, MIAPACA2 (addition of horse serum), PANC1, PLCPRF5, RD, SAOS2, SKLMS1, SKNAS, SNB75, T24, and TE671.
# MEM Earle's medium was used for CACO2, CALU6, HEK293, HELA, HT1080, IMR90, JEG3, JIMT1, SKHEP1, SKNSH, and U87MG. Cell seeding conditions were optimized for each cell line. The cell seeding density varied from 500 to 7000 cells/well depending on their growth characteristics. Peripheral blood mononuclear cells (PBMC) were freshly isolated from whole blood of an anonymous donor through density gradient centrifugation using Ficoll solution (d=1.077). In short, blood was diluted 1:1 with PBS and carefully placed on the Ficoll. After centrifugation 1000×g for 15 min (braking rate 0), the ring containing mainly leucocytes was collected in PBS followed by three times washing with PBS to reduce the platelets. PBMC were seeded at the density 50,000-100,000 cells/well. Cells were grown in 5% CO2 atmosphere in a NB-203XXL incubator (N-BIOTEK Inc., Korea).
# Ninety-four cell lines were tested in parallel. Cell growth and treatment were performed in 96 well microtitre plates CELLSTAR® (Greiner Bio-One, Germany). […]
# [1] = Homo sapiens, 22Rv1, 22RV1, prostate
# [2] = Homo sapiens, 786-0, 786O, kidney
# [3] = Homo sapiens, A204, A204, muscle
# [4] = Homo sapiens, A673, A673, muscle
# [5] = Homo sapiens, A2780, A2780, ovary
# [6] = Homo sapiens, A-375, A375, skin
# [7] = Homo sapiens, A-431, A431, skin
# [8] = Homo sapiens, ASPC1, ASPC1, pancreas
# [9] = Homo sapiens, BT-20, BT20, breast
# [10] = Homo sapiens, C-33-A, C33A, endometrial
# [11] = Homo sapiens, CAKI-1, CAKI1, kidney
# [12] = Homo sapiens, COLO 205, COLO205, colon
# [13] = Homo sapiens, Ca-Ski, CASKI, endometrial
# [14] = Homo sapiens, Caco-2, CACO2, colon
# [15] = Homo sapiens, Calu-6, CALU6, lung
# [16] = Homo sapiens, DLD-1, DLD1, colon
# [17] = Homo sapiens, DU-145, DU145, prostate
# [18] = Homo sapiens, EFO-21, EFO21, ovary
# [19] = Homo sapiens, EJ-28, EJ28, bladder
# [20] = Homo sapiens, Granta-519, GRANTA-519, hematological
# [21] = Homo sapiens, HCT-15, HCT15, colon
# [22] = Homo sapiens, HCT-116, HCT116, colon
# [23] = Homo sapiens, HEK293, HEK293, kidney
# [24] = Homo sapiens, HL-60, HL-60, hematological
# [25] = Homo sapiens, HT-29, HT29, colon
# [26] = Homo sapiens, HT-1080, HT1080, connective tissue
# [27] = Homo sapiens, HeLa, endometrial
# [28] = Homo sapiens, HepG2, HEPG2, liver
# [29] = Homo sapiens, IGROV-1, IGROV1, ovary
# [30] = Homo sapiens, JEG-3, JEG3, placenta
# [31] = Homo sapiens, JIMT-1, JIMT1, breast
# [32] = Homo sapiens, K562, K-562, hematological
# [33] = Homo sapiens, Kasumi 1, KASUMI-1, hematological
# [34] = Homo sapiens, L-363, L-363, hematological
# [35] = Homo sapiens, MCF7, MCF7, breast
# [36] = Homo sapiens, MDA-MB-231, MDAMB231, breast
# [37] = Homo sapiens, MDA-MB-435, MDAMB435, skin
# [38] = Homo sapiens, MDA-MB-436, MDAMB436, breast
smiles,measurement,setting,value
"CC(=O)N[C@@H](Cc1c[nH]c2ccccc12)C(=O)N[C@@H](CCC(=O)C=[N+]=[N-])C(=O)OC(C)C [Compound 1, Isopropyl (S)-2-((S)-2-acetamido-3-(1H-indol-3-yl)propanamido)-6-diazo-5-oxohexanoate]",IC50,"5637, bladder",2.43 µM
same,IC50,"CLS439, bladder",8.43 µM
same,GI50,[1],1.02 µM
same,IC50,[1],1.1 µM
same,GI50,[2],3.34 µM
same,IC50,[2],3.84 µM
same,GI50,[3],2.65 µM
same,IC50,[3],20.3 µM
same,GI50,"Homo sapiens, A549, A549, lung",9.04 µM
same,IC50,"Homo sapiens, A549, A549, lung",9.28 µM
same,GI50,[4],3.49 µM
same,IC50,[4],3.87 µM
same,GI50,[5],3.04 µM
same,IC50,[5],3.28 µM
same,GI50,[6],4.13 µM
same,IC50,[6],4.39 µM
same,GI50,[7],14.2 µM
same,IC50,[7],18.4 µM
same,GI50,"Homo sapiens, ACHN, kidney",7.88 µM
same,IC50,"Homo sapiens, ACHN, kidney",8.98 µM
same,GI50,[8],5.96 µM
same,IC50,[8],8.36 µM
same,GI50,[9],20 µM
same,IC50,[9],53.1 µM
same,GI50,"Homo sapiens, BXPC-3, BXPC3, pancreas",4.24 µM
same,GI50,[10],7.46 µM
same,IC50,[10],7.69 µM
same,GI50,[11],5.3 µM
same,IC50,[11],6.84 µM
same,GI50,[12],2.73 µM
same,IC50,[12],4.66 µM
same,GI50,"Homo sapiens, COLO-678, COLO678, colon",93 µM
same,GI50,[13],5.9 µM
same,IC50,[13],7.83 µM
same,GI50,[14],19.4 µM
same,IC50,[14],28.2 µM
same,GI50,[15],5.88 µM
same,IC50,[15],7.07 µM
same,GI50,[16],9.25 µM
same,IC50,[16],9.59 µM
same,GI50,[17],8.82 µM
same,IC50,[17],10.9 µM
same,GI50,[18],6.86 µM
same,IC50,[18],14.1 µM
same,GI50,[19],5.82 µM
same,IC50,[19],6.55 µM
same,GI50,[20],0.687 µM
same,IC50,[20],0.768 µM
same,GI50,[21],20.1 µM
same,IC50,[21],21.7 µM
same,GI50,[22],1.31 µM
same,IC50,[22],1.33 µM
same,GI50,[23],9.21 µM
same,IC50,[23],10.4 µM
same,GI50,[24],1.09 µM
same,IC50,[24],1.1 µM
same,GI50,[25],0.88 µM
same,IC50,[25],1.07 µM
same,GI50,[26],2.61 µM
same,IC50,[26],3.04 µM
same,GI50,[27],11.8 µM
same,IC50,[27],13.4 µM
same,GI50,[28],7.87 µM
same,IC50,[28],9.85 µM
same,GI50,"Homo sapiens, Hs-578T, HS578T, breast",36.4 µM
same,GI50,[29],8.98 µM
same,IC50,[29],10.7 µM
same,GI50,"Homo sapiens, IMR-90, IMR90, lung",14.6 µM
same,GI50,[30],3.87 µM
same,IC50,[30],4.78 µM
same,GI50,[31],19.4 µM
same,IC50,[31],40.6 µM
same,GI50,[32],1.15 µM
same,IC50,[32],1.2 µM
same,GI50,[33],3.17 µM
same,IC50,[33],7.95 µM
same,GI50,[34],0.546 µM
same,IC50,[34],0.717 µM
same,GI50,"Homo sapiens, LoVo, colon",5.16 µM
same,IC50,"Homo sapiens, LoVo, colon",5.55 µM
same,GI50,[35],4.13 µM
same,IC50,[35],8.59 µM
same,GI50,[36],11.6 µM
same,IC50,[36],14.6 µM
same,GI50,[37],14.7 µM
same,IC50,[37],15.2 µM
same,GI50,[38],49.3 µM
same,IC50,[38],131 µM
